Results as given in publication PMC9961069 (Metabolites, 2023).
“Also recorded” adds a separate entry of the source.

Experiments:
[1] = tested on: T1, DHFR in MDA-MB-468 cells; test: DHFR accumulation assay (Western blot); format: cell-based, Human; details: for Fold increase in DHFR levels: 24 h
T1 construct: reactions containing 55 μg MDA-MB-468 lysate; endogenous in cells; host or cells: MDA-MB-468
Description: Trypsinized MDA-MB-468 cells were seeded into 6-well plates at a density of 300,000 cells per 2 mL of media and allowed to adhere for 24 h. […] The final concentration of DMSO in each well was 1%. A DMSO-only control was also performed on each individual plate. Cells were then trypsinized, harvested by centrifugation at 200× g for 5 min at 4 °C, and washed once with PBS/PIC. Cell pellets were flash frozen using an ethanol/dry ice bath and stored at −80 °C prior to lysis. Each cell pellet was lysed as described above using 50 μL PBS/PIC per cell pellet. Samples were then analyzed by Western blot, as described below, using 30 μg lysate per lane. Band intensities of DHFR were normalized to the loading control SOD1 via densitometry using ImageJ (Fiji), and each DHFR band was normalized to the DMSO control. Fold-change in DHFR band intensity was plotted against inhibitor concentration (μM). Each experiment was performed two separate times as individual biological replicates (n = 2).
Proteins were electrophoretically separated on a 10% gel, and proteins were transferred to a methanol-activated PVDF membrane using the Trans-Blot Turbo transfer system (Bio-Rad) for 7 min at 1.3 A and 25 V in Trans-Blot Turbo transfer buffer (Bio-Rad). Membranes were blocked with 5% skim milk w/v in TBS-T (20 mM Tris, 150 mM NaCl, 0.05% Tween-20) for 1 h at room temperature. […] The horseradish peroxidase (HRP)-linked anti-mouse IgG secondary antibody (NA931, Cytiva; 1:3000) was added for 1 h at room temperature in 5% skim milk w/v in TBS-T. Signal was detected by adding Immobilon Forte Western HRP Substrate (Millipore), and chemiluminescence was captured on a Sapphire Biomolecular Imager (Azure Biosystems). Band densities were determined using ImageJ (Fiji). The band intensity of DHFR was normalized to the thermostable loading control SOD1 [22].

[2] = tested on: STAT3 transcriptional activity in U3A STAT3 luciferase reporter cell line; test: STAT3 luciferase reporter assay; format: cell-based; details: for Inhibition of STAT3-dependent luciferase activity: 0.02–20 μM, OSM 10 ng/mL
Description: The STAT3-dependent luciferase reporter assay was performed as previously reported. One day prior to the assay, the U3A STAT3 luciferase reporter cell line was seeded in a 96-well plate at 8000 cells per well. Cells were then incubated with compounds at the indicated concentration, and each well was treated with either media control or stimulated with 10 ng/mL oncostatin M (OSM) and incubated for six hours at 37 °C. Luciferase activity was quantified using the Bright-Glo Luciferase Assay system (Promega) and a Luminoskan Ascent Luminometer (Labsystems). Collected luminescence readings were normalized to DMSO-treated controls. Stimulation with (+OSM) gave luminescence values around 2.5 times that of the unstimulated control (−OSM). Quadruplicates were averaged and plotted with error bars representing standard deviation. Each condition was performed in quadruplicate on two separate occasions (n = 2) with representative data shown. Statistical significance was determined using Ordinary one-way ANOVA with a Dunnett multiple comparison test.

[3] = tested on: MDA-MB-231 cells; test: LC/MS-based metabolite profiling; format: cell-based, Human; details: 24 h; for AICAR levels with FA treatment / Orotate levels with FA supplementation: 10 μM + 300 μg/mL FA; for AICAR levels / Orotate levels / UDP level: 10 μM; for AICAR levels / Orotate levels: inhibitor alone; for UDP level: inhibitor alone versus DMSO
Description: For characterization by mass spectrometry, MDA-MB-231 cells were seeded at a density of 3 × 10^5 cells per well in 6-well plates. […] DMSO only and DMSO + folinic acid controls were also performed. Per condition, biological quadruplicates of approximately one million cells were harvested, washed briefly with 1 mL of 0.9% NaCl (prepared in LC/MS-grade water Fisher Scientific W6500), and extracted in 500 μL prechilled extraction buffer (80% LC/MS-grade methanol, 20% 125 mM ammonium acetate, 12.5 mM sodium ascorbate prepared in LC/MS-grade water and supplemented with aminopterin (catalog no.: 16.330; Schircks Laboratories) and isotopically labeled internal standards (17 amino acids and reduced glutathione [Cambridge Isotope Laboratories; MSK- A2-1.2 and CNLM-6245-10])) using a cell scraper. After centrifugation for 10 min, 4 °C, at maximum speed on a benchtop centrifuge (Eppendorf), the cleared supernatant was transferred to a new tube and dried using a nitrogen dryer (Reacti-Vap™ Evaporator, Thermo Fisher Scientific, TS-18826) while on ice. Once the drying process was completed, samples were reconstituted in 50 µL QReSS water (Cambridge Isotope Laboratories, MSK-QRESS-KIT) by brief sonication in a 4 °C water bath. Extracted metabolites were spun for 3 min, 4 °C, at maximum speed on a bench-top centrifuge, and cleared supernatant was transferred to LC/MS microvials (National Scientific, C5000-45B). Three microliters of each sample were pooled and serially diluted 3- and 10-fold to be used as quality controls throughout the run of each batch. Unlabeled QReSS metabolites (Cambridge Isotope Laboratories, MSK-QReSS-US-KIT) and unlabeled amino acid mix standard (Cambridge Isotope Laboratories, MSK-A2-US-1.2) were also included in the run to ensure high-quality metabolomics results.
One microliter (equivalent to 2 × 10^4 cells) of the reconstituted sample was injected into a ZIC-pHILIC 150 × 2.1 mm (5 µm particle size) column (EMD Millipore) operated on a Vanquish™ Flex UHPLC Systems (Thermo Fisher Scientific, San Jose, CA, USA). Chromatographic separation was achieved using the following conditions: buffer A was acetonitrile; buffer B was 20 mM ammonium carbonate, 0.1% ammonium hydroxide. Gradient conditions were: linear gradient from 20% to 80% B; 20–20.5 min: from 80% to 20% B; 20.5–28 min: hold at 20% B. The column oven and autosampler tray were held at 25 °C and 4 °C, respectively.
Mass spectrometry data acquisition was performed using a QExactive benchtop orbitrap mass spectrometer equipped with an Ion Max source and a HESI II probe (Thermo Fisher Scientific, San Jose, CA, USA) and was performed in positive and negative ionization mode in a range of m/z = 70–1000, with the resolution set at 70,000, the AGC target at 1 × 10^6, and the maximum injection time (Max IT) at 20 msec. For nucleotide tSIM scans, the resolution was set at 70,000, the AGC target was 1 × 10^5, and the max IT was 100 msec.
Manual curation and integration of chromatographic peaks were performed with TraceFinder 4.1 (Thermo Fisher Scientific, Waltham, MA, USA) using a 5 ppm mass tolerance and referencing an in-house library of chemical standards. Data from TraceFinder were further consolidated and normalized with an in-house R script: (https://github.com/FrozenGas/KanarekLabTraceFinderRScripts/blob/main/MS_data_script_v2.4_20221018.R (accessed on 22 November 2022)). Briefly, this script performs normalization and quality control steps: (1) extracts and combines the peak areas from TraceFinder output .csvs; (2) calculates and normalizes to an averaged factor from all mean-centered chromatographic peak areas of isotopically labeled amino acids internal standards within each sample; (3) filters out low-quality metabolites based on user inputted cut-offs calculated from pool reinjections and pool dilutions; (4) calculates and normalizes for biological material amounts based on the total integrated peak area values of high-confidence metabolites. […]

SMILES: CC1(C)N=C(N)N=C(N)N1c1ccc(Cl)cc1 [Cyc, Cycloguanil]
- DHFR accumulation ([1]; MDA-MB-468, 24 h): required higher concentrations to induce DHFR accumulation; also recorded: failed to induce DHFR accumulation at low nM concentrations
- STAT3-dependent luciferase activity ([2]; 20 nM, U3A): significantly inhibited
- Inhibition of STAT3-dependent luciferase activity [2]: potent inhibition of luciferase activity
- AICAR levels with FA treatment [3]: returned AICAR to the same levels as vehicle controls
- Orotate levels with FA supplementation [3]: returned orotate to vehicle control levels
- AICAR levels [3]: much larger increases in AICAR
- Orotate levels [3]: decreased or statistically insignificant changes in orotate levels
- UDP level [3]: significantly depleted

SMILES: CCc1nc(N)nc(N)c1-c1ccc(Cl)cc1 [Pyr, Pyrimethamine]
- DHFR accumulation ([1]; MDA-MB-468, 24 h): required higher concentrations to induce DHFR accumulation
- Inhibition of STAT3-dependent luciferase activity [2]: do not reach full STAT3 inhibition until µM concentrations
- AICAR levels with FA treatment [3]: returned AICAR to the same levels as vehicle controls
- Orotate levels with FA supplementation [3]: returned orotate to vehicle control levels
- AICAR levels [3]: much larger increases in AICAR
- Orotate levels [3]: decreased or statistically insignificant changes in orotate levels
- UDP level [3]: significantly depleted

SMILES: CC1(C)N=C(N)N=C(N)N1c1ccc(CCCCc2ccc(S(=O)(=O)F)cc2)c(Cl)c1 [compound 127159]
- Fold increase in DHFR levels ([1]; MDA-MB-468, 10 nM): 10 fold
- Fold increase in DHFR levels ([1]; MDA-MB-468, 1 µM): 30 fold
- Concentration giving notable accumulation of DHFR ([1]; MDA-MB-468, 24 h, range 0.012–1 nM): 0.33 nM
- Inhibition of STAT3-dependent luciferase activity [2]: do not reach full STAT3 inhibition until µM concentrations
- AICAR levels with FA treatment [3]: further increased AICAR
- Orotate levels with FA supplementation [3]: orotate remained elevated in the presence of FA
- AICAR levels [3]: increased slightly, yet significantly
- Orotate levels [3]: stark increase in orotate levels
- UDP level [3]: not upon treatment with MTX and 127159 alone
